Read-outs that look alike come from different tables or passages of the source.
Experiments:
[1] = target: T1, Human recombinant PDE10A (hPDE10A) (Homo sapiens, UniProt Q9Y233); assay: In vitro assay PDE10A, human clone (SPA, 3H-cAMP hydrolysis); assay type: biochemical; details: human clone (h), default; for Emax: read-out: hPDE10A2 Emax; for IC50: read-out: hPDE10A2 pIC50 (converted)
T1 construct: His tag (inferred from metal chelate purification); made in house; host or cells: Sf9 insect cells (baculovirus)
T1 sequence (Q9Y233 267-1055): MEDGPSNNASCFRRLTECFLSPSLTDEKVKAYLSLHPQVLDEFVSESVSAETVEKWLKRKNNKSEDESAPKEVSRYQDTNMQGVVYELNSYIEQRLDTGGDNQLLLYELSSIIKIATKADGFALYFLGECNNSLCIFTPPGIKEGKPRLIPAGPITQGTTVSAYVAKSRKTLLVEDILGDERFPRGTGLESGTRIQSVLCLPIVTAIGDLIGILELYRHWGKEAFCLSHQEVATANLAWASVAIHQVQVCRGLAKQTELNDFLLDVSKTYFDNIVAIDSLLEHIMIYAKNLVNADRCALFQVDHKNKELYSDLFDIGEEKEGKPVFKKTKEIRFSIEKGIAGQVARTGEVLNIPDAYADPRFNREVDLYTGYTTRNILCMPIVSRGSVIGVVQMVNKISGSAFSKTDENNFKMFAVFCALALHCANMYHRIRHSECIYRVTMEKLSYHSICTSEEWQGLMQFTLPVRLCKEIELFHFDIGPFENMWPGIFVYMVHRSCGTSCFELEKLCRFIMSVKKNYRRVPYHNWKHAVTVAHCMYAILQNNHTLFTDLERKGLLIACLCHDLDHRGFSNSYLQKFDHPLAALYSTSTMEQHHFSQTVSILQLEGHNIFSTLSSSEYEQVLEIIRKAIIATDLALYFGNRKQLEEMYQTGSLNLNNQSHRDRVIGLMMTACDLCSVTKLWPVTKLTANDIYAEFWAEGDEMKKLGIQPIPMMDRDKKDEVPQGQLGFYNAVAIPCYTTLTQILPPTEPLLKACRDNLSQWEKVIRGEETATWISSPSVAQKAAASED
In short: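 Human recombinant PDE10A was expressed in Sf9 cells via baculovirus and incubated with compound in 50 mM Tris pH 7.8, 8.3 mM MgCl2, 1.7 mM EGTA. Substrate was 60 nM cAMP plus 0.008 μCi 3H-cAMP for 60 min at room temperature, read by SPA scintillation counting. Controls used 1% DMSO, and blanks omitted enzyme.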

PDE2A = target: T2, PDE2A (Rattus norvegicus, UniProt Q01062); assay: PDE2 occupancy by test compounds, ex-vivo autoradiography with [3H]B-17a; assay type: in vivo, Male Wistar rats; details: for receptor occupancy at 10 mg/kg / PDE2 Occupancy at 10 mg/kg: percentage receptor occupancy, ex-vivo autoradiography, striatum; for ED50: read-out: PDE Occupancy ED50
T2 construct: Twenty μm-thick striatal sections were cut; from tissue; host or cells: rat brain, striatal sections
T2 sequence (Q01062 1-928): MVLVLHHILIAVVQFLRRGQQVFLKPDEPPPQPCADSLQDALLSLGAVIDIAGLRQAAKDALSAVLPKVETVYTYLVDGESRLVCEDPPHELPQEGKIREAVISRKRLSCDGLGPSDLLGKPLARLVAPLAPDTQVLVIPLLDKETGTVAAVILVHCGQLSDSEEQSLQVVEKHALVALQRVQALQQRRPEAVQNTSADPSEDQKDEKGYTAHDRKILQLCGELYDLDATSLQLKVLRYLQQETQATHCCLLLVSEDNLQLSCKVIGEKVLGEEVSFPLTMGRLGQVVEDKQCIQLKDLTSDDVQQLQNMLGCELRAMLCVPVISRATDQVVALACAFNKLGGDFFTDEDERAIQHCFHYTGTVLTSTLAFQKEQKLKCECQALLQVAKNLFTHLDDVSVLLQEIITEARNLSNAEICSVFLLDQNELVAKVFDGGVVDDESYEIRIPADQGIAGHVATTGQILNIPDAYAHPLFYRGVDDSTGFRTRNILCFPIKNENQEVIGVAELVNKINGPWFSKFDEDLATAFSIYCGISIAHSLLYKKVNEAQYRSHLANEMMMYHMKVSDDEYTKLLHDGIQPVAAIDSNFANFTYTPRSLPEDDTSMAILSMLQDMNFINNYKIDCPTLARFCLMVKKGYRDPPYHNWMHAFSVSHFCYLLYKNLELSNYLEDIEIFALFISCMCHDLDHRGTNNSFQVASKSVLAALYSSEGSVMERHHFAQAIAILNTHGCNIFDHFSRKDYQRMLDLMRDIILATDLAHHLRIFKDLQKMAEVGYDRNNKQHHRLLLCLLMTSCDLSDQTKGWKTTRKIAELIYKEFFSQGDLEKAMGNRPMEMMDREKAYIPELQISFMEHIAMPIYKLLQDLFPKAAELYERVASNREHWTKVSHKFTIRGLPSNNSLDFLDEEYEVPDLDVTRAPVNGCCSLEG

[2] = target: T3, Human recombinant PDE3A (hPDE3A) (Homo sapiens, UniProt Q14432); assay: In vitro assay PDE3A (SPA, 3H-cAMP hydrolysis); assay type: biochemical; details: for IC50: hPDE3B pIC50, read-out: pIC50 (converted); for Emax: read-out: hPDE3B Emax, read-out: Emax;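 on all read-outs here: the method names PDE3A and the table heading PDE3B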
T3 construct: purchased Scottish Biomedical; host or cells: Sf9 insect cells
T3 sequence (Q14432 whole entry): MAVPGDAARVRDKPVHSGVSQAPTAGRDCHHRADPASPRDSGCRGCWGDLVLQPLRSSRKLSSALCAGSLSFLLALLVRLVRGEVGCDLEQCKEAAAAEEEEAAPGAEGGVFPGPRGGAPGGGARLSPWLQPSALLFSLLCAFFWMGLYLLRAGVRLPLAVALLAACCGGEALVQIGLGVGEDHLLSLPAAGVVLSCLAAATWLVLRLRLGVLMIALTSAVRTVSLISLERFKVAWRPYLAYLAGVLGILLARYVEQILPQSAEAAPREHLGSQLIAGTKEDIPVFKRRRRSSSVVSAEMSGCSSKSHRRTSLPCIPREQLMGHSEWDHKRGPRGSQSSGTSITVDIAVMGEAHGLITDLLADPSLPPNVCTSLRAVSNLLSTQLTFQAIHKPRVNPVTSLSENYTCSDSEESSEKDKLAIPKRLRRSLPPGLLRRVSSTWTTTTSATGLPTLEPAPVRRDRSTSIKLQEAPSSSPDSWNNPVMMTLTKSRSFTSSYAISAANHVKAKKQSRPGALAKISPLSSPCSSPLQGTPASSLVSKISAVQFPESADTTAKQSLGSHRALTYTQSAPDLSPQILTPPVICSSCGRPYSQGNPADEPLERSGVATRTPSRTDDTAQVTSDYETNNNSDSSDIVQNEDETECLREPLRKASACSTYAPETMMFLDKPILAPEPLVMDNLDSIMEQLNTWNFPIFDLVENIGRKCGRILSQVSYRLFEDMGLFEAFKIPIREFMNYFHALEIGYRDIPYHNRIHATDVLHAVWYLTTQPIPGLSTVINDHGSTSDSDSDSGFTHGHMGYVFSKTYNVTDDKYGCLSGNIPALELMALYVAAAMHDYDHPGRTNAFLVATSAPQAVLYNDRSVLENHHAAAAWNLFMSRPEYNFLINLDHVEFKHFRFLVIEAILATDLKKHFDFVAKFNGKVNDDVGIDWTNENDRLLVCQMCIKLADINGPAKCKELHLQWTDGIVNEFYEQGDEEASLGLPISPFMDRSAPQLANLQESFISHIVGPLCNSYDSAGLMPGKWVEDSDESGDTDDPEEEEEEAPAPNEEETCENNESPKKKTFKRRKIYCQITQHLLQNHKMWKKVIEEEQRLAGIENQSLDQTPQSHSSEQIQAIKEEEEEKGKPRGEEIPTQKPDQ
In short: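 Human PDE3A, cloned from brain, as partially purified Sf9 lysate. Substrate 0.4 μM cAMP plus [3H]-cAMP (2.4 μCi/ml final) in 50 mM Tris pH 7.8, 8.3 mM MgCl2, 1.7 mM EGTA, 60 min at room temperature, 1% DMSO final. Hydrolysis read by SPA scintillation counting against no-enzyme blanks and DMSO controls.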

[3] = target: T4, Human recombinant PDE2A (hPDE2A) (Homo sapiens, UniProt O00408); assay: In vitro assay PDE2A (SPA, 3H-cGMP hydrolysis); assay type: biochemical; details: for Emax: read-out: hPDE2A Emax
T4 construct: His tag (inferred from metal chelate purification); made in house; host or cells: Sf9 insect cells (baculovirus)
T4 sequence (O00408 whole entry): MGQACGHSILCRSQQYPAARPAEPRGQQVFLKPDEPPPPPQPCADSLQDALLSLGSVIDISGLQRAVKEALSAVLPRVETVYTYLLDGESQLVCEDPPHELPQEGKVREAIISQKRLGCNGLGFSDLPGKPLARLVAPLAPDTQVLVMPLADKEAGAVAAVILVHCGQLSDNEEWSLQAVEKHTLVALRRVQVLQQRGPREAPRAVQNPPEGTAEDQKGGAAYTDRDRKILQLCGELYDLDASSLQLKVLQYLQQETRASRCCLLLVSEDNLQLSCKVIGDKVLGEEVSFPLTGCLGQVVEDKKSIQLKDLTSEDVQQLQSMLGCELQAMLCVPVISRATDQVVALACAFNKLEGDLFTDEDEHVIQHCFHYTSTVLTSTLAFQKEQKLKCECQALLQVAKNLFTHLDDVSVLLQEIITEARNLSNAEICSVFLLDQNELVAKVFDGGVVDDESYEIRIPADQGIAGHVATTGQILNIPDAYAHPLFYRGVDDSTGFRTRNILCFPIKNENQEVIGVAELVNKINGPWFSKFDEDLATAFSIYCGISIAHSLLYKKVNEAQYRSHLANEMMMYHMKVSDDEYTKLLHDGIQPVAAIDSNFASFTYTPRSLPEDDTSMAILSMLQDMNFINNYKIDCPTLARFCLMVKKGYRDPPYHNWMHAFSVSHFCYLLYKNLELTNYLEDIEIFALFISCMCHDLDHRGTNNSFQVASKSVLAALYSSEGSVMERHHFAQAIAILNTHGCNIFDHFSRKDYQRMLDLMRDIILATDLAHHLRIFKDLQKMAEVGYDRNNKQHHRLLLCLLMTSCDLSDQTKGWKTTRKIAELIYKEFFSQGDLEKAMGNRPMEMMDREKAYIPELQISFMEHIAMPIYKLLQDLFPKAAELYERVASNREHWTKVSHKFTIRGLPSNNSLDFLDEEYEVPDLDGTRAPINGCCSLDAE

[4] = hPDE2A pIC50, human recombinant PDE2A, 10 μM cGMP substrate
[5] = human recombinant PDE2A, 10 μM cGMP substrate, read-out: hPDE2A pIC50 (converted)
[6] = read-out: hPDE2A pIC50 (converted)
[7] = human recombinant PDE2A, 10 μM cGMP substrate

| Emax [1] [%] | IC50 [1] [nM] | receptor occupancy at 10 mg/kg (PDE2A; po, route PO (oral)) [%] | IC50 [2] [µM] | Emax [2] [%] | Emax [3] [%] | IC50 [3, 5] [nM] | Emax ([3]; human recombinant PDE2A) [%] | IC50 [3, 6] [nM] | SMILES | other results |
| --- | --- | --- | --- | --- | --- | --- | --- | --- | --- | --- |
| 95 | 347 | 2 | > 10 | 38 | 100 | 10.5 | 100 | 10.5 | Cc1cc([C@@H]2CN(C(=O)c3cc4cccnc4nc3C(F)(F)F)CC[C@H]2C)n2ncnc2n1 [Compound 13] | – |
| 97 | 195 | 4 | 6.46 | 65 | 100 | 4.68 | 100 | 4.68 | Cc1cc([C@@H]2CN(C(=O)c3cc(Cl)ncc3C)CC[C@H]2C)n2ncnc2n1 [Compound 18] | – |
| – | – | – | – | – | – | – | – | – | Cc1cc(C(=O)N2CC[C@@H](C)[C@](F)(c3cc(C(F)F)nc4ncnn34)C2)cc(C2CC2)n1 [Compound 24b] | hPDE10A2 Emax [1]: 60; hPDE10A2 pIC50 [1]: 5.13; PDE2 Occupancy at 10 mg/kg (PDE2A; route SC (subcutaneous)): 0; hPDE3B Emax [2]: 28; hPDE2A Emax [3]: 98; hPDE2A pIC50 [3]: 8.19; hPDE2A Emax ([3]; human recombinant PDE2A): 98; hPDE2A pIC50 [3, 7]: 8.19 |
| – | – | – | – | – | – | – | – | – | O=C(c1ccc2ncsc2c1)N1[C@H]2CC[C@@H]1[C@H](c1cc(C(F)F)nc3ncnn13)CC2 [Compound 25b] | hPDE10A2 Emax [1]: 28; hPDE10A2 pIC50 [1]: <5; PDE2 Occupancy at 10 mg/kg (PDE2A; route PO (oral)): −9; hPDE3B Emax [2]: 37; hPDE2A Emax [3]: 92; hPDE2A pIC50 [3]: 5.96; hPDE2A Emax ([3]; human recombinant PDE2A): 92; hPDE2A pIC50 [3, 7]: 5.96 |
| 88 | 1100 | 34 | > 10 | 37 | 100 | 0.912 | 100 | 0.912 | Cc1cnc(Cl)cc1C(=O)N1CC[C@@H](C)[C@H](c2cc(C(F)F)nc3ncnn23)C1 [Compound 27] | – |
| 81 | 1450 | -6 | > 10 | 31 | 100 | 3.47 | 100 | 3.47 | Cc1cc(C(=O)N2CC[C@@H](C)[C@H](c3cc(C(F)F)nc4ncnn34)C2)c(C)cn1 [Compound 32] | – |
| 67 | 6170 | -7 | > 10 | 25 | 99 | 14.8 | 99 | 14.8 | C[C@@H]1CCN(C(=O)c2ccc3ncsc3c2)C[C@@]1(F)c1cc(C(F)F)nc2ncnn12 [Compound 33] | – |
| 93 | 468 | 32 | 3.98 | 64 | 100 | – | – | 2.75 | COc1cc(C(=O)N2CC[C@@H](C)[C@H](c3cc(C(F)F)nc4ncnn34)C2)c(F)cn1 [Compound 36] | ED50 (PDE2A; route PO (oral), drug dose producing 50% receptor occupancy): 45.2 mg/kg |
| 93 | 427 | -13 | 8.91 | 52 | 100 | – | – | 17.4 | COc1cc(C(=O)N2CC[C@@H](C)[C@H](c3cc(C)nc4ncnn34)C2)c(C(F)(F)F)cn1 [Compound 37] | – |
| 80 | 2290 | 1 | > 10 | 43 | 100 | 6.17 | 100 | 6.17 | COc1nc(N)ncc1C(=O)N1CC[C@@H](C)[C@H](c2cc(C(F)F)nc3ncnn23)C1 [Compound 38] | – |
| 75 | 3090 | -8 | > 10 | 16 | 98 | 8.32 | 98 | 8.32 | C[C@@H]1CCN(C(=O)c2cc(Cl)cnc2C(F)(F)F)C[C@H]1c1cc(C(F)F)nc2ncnn12 [Compound 39] | – |
| 72 | 4170 | 8 | > 10 | 17 | 99 | 13.8 | 99 | 13.8 | Cc1cc(C(=O)N2CC[C@@H](C)[C@H](c3cc(C(F)F)nc4ncnn34)C2)c(C(F)(F)F)cn1 [Compound 41] | – |
| 95 | 316 | 54 | > 10 | 48 | 100 | 1.15 | 100 | 1.15 | C[C@@H]1CCN(C(=O)c2ccnc(Cl)c2)C[C@H]1c1cc(C(F)F)nc2ncnn12 [Compound 42] | – |

| SMILES | Emax [1] [%] | IC50 [1] [nM] | receptor occupancy at 10 mg/kg (PDE2A; po, route PO (oral)) [%] | IC50 [2] [µM] | Emax [2] [%] | Emax [3] [%] | IC50 [3, 5] [nM] | Emax ([3]; human recombinant PDE2A) [%] | IC50 [3, 6] [nM] | other results |
| --- | --- | --- | --- | --- | --- | --- | --- | --- | --- | --- |
| Cc1cc(C(=O)N2CC[C@@H](C)[C@H](c3cc(C)nc4ncnn34)C2)cc(C)n1 [Compound 1a] | 98 | 12.9 | 37 | 2.09 | 65 | 100 | – | – | – | IC50 ([3]; hPDE2A pIC50): 0.794 nM; IC50 [3, 4]: 0.794 nM |
| Cc1cc([C@@H]2CN(C(=O)c3ccc4ncsc4c3)CC[C@H]2C)n2ncnc2n1 [Compound 2a] | 101 | 7.24 | – | 0.776 | 98 | 101 | – | – | – | receptor occupancy at 10 mg/kg (PDE2A; sc, route SC (subcutaneous)): 70%; IC50 ([3]; hPDE2A pIC50): 0.589 nM; IC50 [3, 4]: 0.589 nM |
| Cc1cc([C@H]2CN(C(=O)c3ccc4ncsc4c3)CC[C@@H]2C)n2ncnc2n1 [Compound 2b] | 95 | 269 | – | > 10 | 31 | 100 | – | – | – | receptor occupancy at 10 mg/kg (PDE2A; sc, route SC (subcutaneous)): 3%; IC50 ([3]; hPDE2A pIC50): 19.1 nM; IC50 [3, 4]: 19.1 nM |
| Cc1cc([C@@H]2CN(C(=O)c3cc(C)c(C)cn3)CC[C@H]2C)n2ncnc2n1 [Compound 3a] | 93 | 269 | 0 | 3.47 | 77 | 97 | – | – | – | IC50 ([3]; hPDE2A pIC50): 5.75 nM; IC50 [3, 4]: 5.75 nM |
| Cc1cc(C(=O)N2CC[C@@H](C)[C@H](c3cc(C)nc4ncnn34)C2)cc(C(F)(F)F)n1 [Compound 4] | 99 | 24 | 9 | 5.75 | 70 | 100 | – | – | – | IC50 ([3]; hPDE2A pIC50): 1.45 nM; IC50 [3, 4]: 1.45 nM |
| Cc1cc([C@@H]2CN(C(=O)c3ccc4occc4c3)CC[C@H]2C)n2ncnc2n1 [Compound 6] | 100 | 17.8 | 67 | 0.676 | 97 | 99 | – | – | – | IC50 ([3]; hPDE2A pIC50): 1.62 nM; IC50 [3, 4]: 1.62 nM |
| Cc1cc(C(=O)N2C3CCC2[C@@H](c2cc(C(F)F)nc4ncnn24)CC3)cc(C2CC2)n1 (some centres unmarked) [Compound 28] | 95 | 447 | – | > 10 | 17 | 101 | 0.955 | 101 | 0.955 | receptor occupancy at 10 mg/kg (PDE2A; route SC (subcutaneous)): 49%; ED50 (PDE2A; po): 25 mg/kg |
| Cc1cc(C(=O)N2[C@H]3CC[C@@H]2[C@H](c2cc(C(F)F)nc4ncnn24)CC3)cc(C)n1 [Compound 30] | 32 | > 10000 | – | > 10 | 8 | 77 | 3550 | 77 | 3550 | receptor occupancy at 10 mg/kg (PDE2A; route SC (subcutaneous)): 0% |

Reference: patent US10947242B2, “[1,2,4]triazolo[1,5and#8208;A]pyrimidine compounds as PDE2 inhibitors” (Janssen Pharmaceutica NV, priority 2016, dated 2021)
